Like-named read-outs stand apart in the source and are kept apart here.
Key:
[1] = tested on: MDA-MB-468 tumors; assay: Antibody staining of resected MDA-MB-468 tumors from treated mice; assay type: in vivo, mouse; settings: mice bearing MDA-MB-468 tumors; 30 mg/kg orally every day for three weeks
Protocol: Mice bearing MDA-MB-468 tumors were treated for three weeks with 30 mg/kg Compound 525 orally every day. Tumors were resected from the mice and fixed in buffered formalin and put into paraffin blocks. The blocks were sectioned and stained with antibodies against Ki67, Apotag, c-Myc, p-S473-Akt1 or p-S450-Akt1. The cells were imaged with a Nikon microscope.

[2] = tested on: MM1S cells; assay: MTT cell proliferation assay; assay type: cell-based; settings: Homo sapiens, MM1.S
Protocol: (§1) The MTT cell proliferation assay was used to study the cytotoxic properties of the compounds. The assay was performed according to the method described by Roche Molecular Biochemicals, with minor modifications. The assay is based on the cleavage of the tetrazolium salt, MTT, in the presence of an electron-coupling reagent. The water-insoluble formazan salt produced must be solubilized in an additional step. Cells grown in a 96-well tissue culture plate were incubated with the MTT solution for approximately 4 hours. After this incubation period, a water-insoluble formazan dye formed. After solubilization, the formazan dye was quantitated using a scanning multi-well spectrophotometer (ELISA reader). […] The cells were seeded at 5,000-10,000 cells in each well of 96-well plate in 100 μL of fresh culture medium and were allowed to attach overnight. The stock solutions of the compounds were diluted in 100 μL cell culture medium to obtain eight concentrations of each test compound, ranging from 1 nM to 30 μM. […] All optical densities were measured at 490 nm using a Vmax Kinetic Microplate Reader (Molecular Devices). In most cases, the assay was performed in duplicate and the results were presented as a mean percent inhibition to the negative control±SE. The following formula was used to calculate the percent of inhibition: Inhibition (%)=(1−(ODo/OD))×100.
(§2) The M24 cell line is derived from human melanoma cells. The U2OS cell line is a human osteosarcoma cell line expressing wild type p53 and Rb, but lacking p16. The MM1S cell line is a multiple myeloma cell line; the parent cell line, MM.1, was established from peripheral blood of a multiple myeloma patient who had become resistant to steroid-based therapy. The RPMI8226 cell line is derived from human B lymphocyte cells. NHDF cells are normal human dermal fibroblast cells. The MRC-5 cell line is derived from normal lung tissue of a fetus. The PC3 cell line is a human prostate cancer cell line. The DU-145 cell line is a human prostate cancer cell line. The MDA-MB-231 cell line is a human breast adenocarcinoma cell line. The MDA-MB-468 cell line is a human breast carcinoma cell line. HL-60 cells are human promyelocytic leukemia cells. Hep G2 cells are human hepatocellular carcinoma cells. HEP 3B cells are human hepatocellular carcinoma cells. The DLD-1 cell line is a colorectal adenocarcinoma cell line. The HCT-15 cell line is a human colon carcinoma cell line. The Colo-205 cell line is derived from a human adenocarcinoma of the colon. The LoVo cell line is a human colon adenocarcinoma cell line.

[3] = tested on: HL-60 cells; assay: MTT cell proliferation assay; assay type: cell-based; settings: Homo sapiens
Protocol: as §1, §2

[4] = tested on: RPMI8226 cells; assay: MTT cell proliferation assay; assay type: cell-based; settings: Homo sapiens, RPMI-8226
Protocol: as §1, §2

[5] = tested on: Z138 cells; assay: MTT cell proliferation assay; assay type: cell-based; settings: Homo sapiens
How it was run: (§3)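 5,000-10,000 cells/well, overnight attach; 8 conc., 1 nM–30 μM; MTT ~4 h; formazan solubilized, OD 490 nm; % inhibition = (1−(ODo/OD))×100 vs neg. control; mostly duplicate, mean±SE.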

[6] = tested on: MS751 cells; assay: MTT cell proliferation assay; assay type: cell-based; settings: Homo sapiens
How it was run: as §3

[7] = tested on: 3T3 cells; assay: MTT cell proliferation assay; assay type: cell-based; settings: Mus musculus
How it was run: as §3

[8] = tested on: MDA-MB-231 cells; assay: MTT cell proliferation assay; assay type: cell-based; settings: Homo sapiens; MDA-MB-231 cell line; read-out: MTT Assay IC50, MDA-MB-231
Protocol: as §1, §2

[9] = tested on: Molt-4 xenografts; assay: Molt-4 T-ALL xenograft in SCID mice; assay type: in vivo, mouse; settings: 100 mg/kg PO twice daily (BID)
Protocol: In this study, the impact of Compounds 667 and 728 on tumor growth was tested using the Molt-4 T-ALL cancer xenograft model in SCID mice. MOLT-4 (CRL-1582) acute lymphoblastic leukemia cells were obtained from ATCC. These cells were grown in RPMI-1640 medium supplemented with 10% fetal bovine serum, 1% penicillin and streptomycin. Cells were sub-cultured by transferring floating cells to a new flask and trypsinizing adherent cells before subculturing at a ratio of 1:4. Molt-4 cells were harvested by centrifugation and counted using a hemocytometer. Cells were resuspended in PBS at a 5×10^7 cells per mL. Cells were placed on ice and mixed with an equal volume of Matrigel (BD Biosciences CB-40234). This mixture was kept on ice and injected into the left flank of mice in a volume of 0.2 mL, equivalent to 5×10^6 cells per mouse. Twenty-four (24) CB-17 SCID mice were inoculated subcutaneously in the left flank with the Molt-4 cells. Treatment was initiated when the tumors reached a mean volume of approximately 100 mm^3. Mice were allocated to three (3) groups of eight (8) mice. Mice were treated with vehicle, Compound 667 or Compound 728. Compounds 667 and 728 (100 mg/kg) were given orally (PO) twice daily (BID) beginning on Day 1. Animal weights and conditions were recorded daily, and tumors were measured on Mondays, Wednesdays and Fridays.

[10] = tested on: MRC-5 cells; assay: MTT cell proliferation assay; assay type: cell-based; settings: Homo sapiens, MRC5; MRC-5 cell line
Protocol: as §1, §2

[11] = tested on: Hep G2 cells; assay: MTT cell proliferation assay; assay type: cell-based; settings: Homo sapiens, HepG2; Hep G2 cell line; read-out: MTT Assay IC50, Hep G2
Protocol: as §1, §2

[12] = tested on: HEP 3B cells; assay: MTT cell proliferation assay; assay type: cell-based; settings: Homo sapiens, Hep3B; HEP 3B cell line; read-out: MTT Assay IC50, HEP 3B
Protocol: as §1, §2

[13] = Z-138, Z138 cells, approximately 64-72 hours incubation, read-out: MTT Assay IC50 Z-138
[14] = MS751, MS751 cells, approximately 64-72 hours incubation, read-out: MTT Assay IC50 MS-751
[15] = NIH3T3, approximately 64-72 hours incubation, read-out: MTT Assay IC50 3T3
[16] = Z-138, Z138 cells, approximately 64-72 hours incubation, read-out: MTT Assay IC50, Z-138
[17] = MS751, MS751 cells, approximately 64-72 hours incubation, read-out: MTT Assay IC50, MS-751
[18] = NIH3T3, approximately 64-72 hours incubation, read-out: MTT Assay IC50, 3T3

Structure (SMILES)	IC50 [5, 13]	IC50 [6, 14]	IC50 [7, 15]	IC50 [8]	median tumor volume of Molt-4 xenografts (as a percentage of pre-dose tumor volume) [9]	IC50 [5, 16]	IC50 [6, 17]	IC50 [7, 18]	further results
Nc1ccc(/C=C/C(=O)NCc2cc3cc(-c4ccc(C(=O)N5CC[C@H](F)C5)cc4)cc(C(F)(F)F)c3o2)cn1 [Compound 525, (S,E)-3-(6-aminopyridin-3-yl)-N-((5-(4-(3-fluoropyrrolidine-1-carbonyl)phenyl)-7-(trifluoromethyl)benzofuran-2-yl)methyl)acrylamide]	100 to 5000 nM	100 to 5000 nM	> 10000 nM						PAK4 pathway signaling through Akt (phospho-Akt1) in tumors [1]: overall reductions; apoptosis (Apotag) in tumors [1]: increase; c-Myc in tumors [1]: overall reductions; proliferation (Ki67) in tumors [1]: reduction; IC50 ([2]; MM1S cell line, read-out: MTT Assay IC50, MM1S): 100 to 5000 nM; IC50 ([2]; MM1S cells, 72-hour MTT, read-out: MM1S MTT IC50): 310 nM; IC50 ([3]; HL-60 cell line, read-out: MTT Assay IC50, HL-60): 100 to 5000 nM; IC50 ([3]; HL-60 cells, 72-hour MTT, read-out: HL-60 MTT IC50): 1060 nM; IC50 ([4]; RPMI8226 cell line, read-out: MTT Assay IC50, RPMI8226): 100 to 5000 nM; IC50 ([4]; RPMI8226 cells, 72-hour MTT, read-out: RPMI8226 MTT IC50): 430 nM; IC50 ([5]; Z-138, 72 h, Z-138 cells, 72-hour MTT, read-out: Z-138 MTT IC50): 100 nM; IC50 ([6]; MS751, 72 h, MS751 cells, 72-hour MTT, read-out: MS751 MTT IC50): 300 nM; IC50 ([7]; NIH3T3, 72-hour MTT, read-out: 3T3 MTT IC50): > 10000 nM
CC1(C)COCCN1C(=O)c1ccc(-c2cc(C(F)(F)F)c3oc(CNC(=O)/C=C/c4ccc(N)nc4)cc3c2)cc1 [Compound 517, (E)-3-(6-aminopyridin-3-yl)-N-((5-(4-(3,3-dimethylmorpholine-4-carbonyl)phenyl)-7-(trifluoromethyl)benzofuran-2-yl)methyl)acrylamide]	100 to 5000 nM	100 to 5000 nM	> 10000 nM	100 to 5000 nM					
Nc1ccc(/C=C/C(=O)NCc2cc3cc(-c4ccc(C(=O)N5CCOCC5)cn4)cc(C(F)(F)F)c3o2)cn1 [Compound 521, (E)-3-(6-aminopyridin-3-yl)-N-((5-(5-(morpholine-4-carbonyl)pyridin-2-yl)-7-(trifluoromethyl)benzofuran-2-yl)methyl)acrylamide]	< 100 nM	< 100 nM	> 10000 nM	100 to 5000 nM					
Nc1ccc(/C=C/C(=O)NCc2cc3cc(-c4ccc(C(=O)N5CCC(F)(F)CC5)cc4)cc(-c4ccc(F)cc4)c3o2)cn1 [Compound 728, (E)-3-(6-aminopyridin-3-yl)-N-((5-(4-(4,4-difluoropiperidine-1-carbonyl)phenyl)-7-(4-fluorophenyl)benzofuran-2-yl)methyl)acrylamide]					tumor growth inhibition	< 100 nM	< 100 nM	100 to 5000 nM	
Nc1ccc(/C=C/C(=O)NCc2cc3cc(-c4ccc(C(=O)N5CCOCC5)cc4)cc(Cl)c3o2)cn1 [Compound 502, (E)-3-(6-aminopyridin-3-yl)-N-((7-chloro-5-(4-(morpholine-4-carbonyl)phenyl)benzofuran-2-yl)methyl)acrylamide]	100 to 5000 nM	100 to 5000 nM	> 10000 nM						IC50 [10]: 100 to 5000 nM; IC50 [11]: 100 to 5000 nM; IC50 [12]: 100 to 5000 nM
Nc1ccc(/C=C/C(=O)NCc2cc3cc(-c4ccc(C(=S)N5CCC(F)(F)CC5)cn4)cc(C(F)(F)F)c3o2)cn1 [Compound 667, (E)-3-(6-aminopyridin-3-yl)-N-((5-(5-(4,4-difluoropiperidine-1-carbonothioyl)pyridin-2-yl)-7-(trifluoromethyl)benzofuran-2-yl)methyl)acrylamide]					tumor growth inhibition	< 100 nM	< 100 nM	> 10000 nM	

— patent US12331040B2 (Karyopharm Therapeutics Inc., priority 2013, dated 2025)
